# Assays:
# Assay in all cases: KINOMEscan kinase binding assay (Eurofins/DiscoveRx), % Ctrl
# Settings in all cases: 1 μM
# kinases [1] = molecular target: T1, kinases (Homo sapiens, UniProt P36888)
# T1 construct: purchased Eurofins/DiscoveRx; host or cells: E. coli BL21-derived host (T7 phage display) for most kinases; HEK-293 for the rest
# T1 sequence (P36888 27-993): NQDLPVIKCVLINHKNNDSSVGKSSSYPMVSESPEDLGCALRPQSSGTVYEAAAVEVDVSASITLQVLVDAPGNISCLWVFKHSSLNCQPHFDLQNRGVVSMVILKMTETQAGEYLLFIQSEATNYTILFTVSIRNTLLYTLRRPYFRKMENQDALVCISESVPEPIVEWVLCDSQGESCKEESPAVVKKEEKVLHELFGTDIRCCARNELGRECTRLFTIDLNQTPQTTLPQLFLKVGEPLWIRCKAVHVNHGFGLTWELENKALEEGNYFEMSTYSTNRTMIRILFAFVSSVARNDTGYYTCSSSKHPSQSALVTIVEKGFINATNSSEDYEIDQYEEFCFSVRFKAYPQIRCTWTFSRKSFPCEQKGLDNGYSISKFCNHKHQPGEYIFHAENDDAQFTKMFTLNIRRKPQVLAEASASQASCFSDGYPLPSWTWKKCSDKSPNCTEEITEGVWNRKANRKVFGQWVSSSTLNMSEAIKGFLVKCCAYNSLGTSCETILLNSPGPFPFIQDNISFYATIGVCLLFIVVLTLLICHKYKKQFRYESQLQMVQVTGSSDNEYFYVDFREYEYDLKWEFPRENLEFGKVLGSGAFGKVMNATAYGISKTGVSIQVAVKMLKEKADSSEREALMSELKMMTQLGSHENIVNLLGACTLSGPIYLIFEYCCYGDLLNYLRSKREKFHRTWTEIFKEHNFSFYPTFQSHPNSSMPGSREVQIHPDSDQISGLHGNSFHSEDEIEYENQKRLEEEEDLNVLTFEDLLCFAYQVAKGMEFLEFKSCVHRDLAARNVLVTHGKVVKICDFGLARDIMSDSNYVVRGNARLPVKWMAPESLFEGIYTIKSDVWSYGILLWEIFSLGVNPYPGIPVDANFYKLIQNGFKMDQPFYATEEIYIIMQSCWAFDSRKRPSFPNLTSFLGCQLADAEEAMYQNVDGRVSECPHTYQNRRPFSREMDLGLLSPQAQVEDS
# Experimental: (§1) Kinase binding assays were performed at Eurofins/DiscoveRx using the general KINOMEscan Protocol (Fabian, M. A. et al., “A small molecule-kinase interaction map for clinical kinase inhibitors,” Nat. Biotechnol. 2005, 23(3):329-36). For most assays, kinase-tagged T7 phage strains were prepared in an E. coli host derived from the BL21 strain. E. coli were grown to log-phase and infected with T7 phage and incubated with shaking at 32° C. until lysis. The lysates were centrifuged and filtered to remove cell debris. The remaining kinases were produced in HEK-293 cells and subsequently tagged with DNA for qPCR detection. Streptavidin-coated magnetic beads were treated with biotinylated small molecule ligands for 30 minutes at room temperature to generate affinity resins for kinase assays. The liganded beads were blocked with excess biotin and washed with blocking buffer (SeaBlock (Pierce), 1% BSA, 0.05% Tween 20, 1 mM DTT) to remove unbound ligand and to reduce nonspecific binding. Binding reactions were assembled by combining kinases, liganded affinity beads, and test compounds in 1×binding buffer (20% SeaBlock, 0.17×PBS, 0.05% Tween 20, 6 mM DTT). All reactions were performed in polystyrene 96-well plates in a final volume of 0.135 mL. The assay plates were incubated at room temperature with shaking for 1 hour and the affinity beads were washed with washbuffer (1×PBS, 0.05% Tween 20). The beads were then re-suspended in elution buffer (1× PBS, 0.05% Tween 20, 0.5 μM non-biotinylated affinity ligand) and incubated at room temperature with shaking for 30 minutes. The kinase concentration in the eluates was measured by qPCR. Results for compounds tested in this assay at a given concentration are reported as “% Ctrl”, where lower numbers indicate stronger binding in the matrix.
# (§2) (test compound signal-positive control signal)/(negative control signal-positive control signal) X100
# kinases [2] = molecular target: T2, kinases (Homo sapiens, UniProt P00533, DEL752-759)
# T2 construct: purchased Eurofins/DiscoveRx; host or cells: E. coli BL21-derived host (T7 phage display) for most kinases; HEK-293 for the rest
# Experimental: as §1, §2
# kinases [3] = molecular target: T3, kinases (Homo sapiens, UniProt P09619)
# T3 construct: purchased Eurofins/DiscoveRx; host or cells: E. coli BL21-derived host (T7 phage display) for most kinases; HEK-293 for the rest
# Experimental: as §1, §2
# kinases [4] = molecular target: T4, kinases (Homo sapiens, UniProt P10721, L576P)
# T4 construct: purchased Eurofins/DiscoveRx; host or cells: E. coli BL21-derived host (T7 phage display) for most kinases; HEK-293 for the rest
# Experimental: as §1, §2
# kinases [5] = molecular target: T5, kinases (Homo sapiens, UniProt P10721, V559D/V654A)
# T5 construct: purchased Eurofins/DiscoveRx; host or cells: E. coli BL21-derived host (T7 phage display) for most kinases; HEK-293 for the rest
# Experimental: as §1, §2
# kinases [6] = molecular target: T6, kinases (Homo sapiens, UniProt P00519, H396P)
# T6 construct: purchased Eurofins/DiscoveRx; host or cells: E. coli BL21-derived host (T7 phage display) for most kinases; HEK-293 for the rest
# Experimental: as §1, §2
# kinases [7] = molecular target: T7, kinases (Homo sapiens, UniProt P00519, M351T)
# T7 construct: purchased Eurofins/DiscoveRx; host or cells: E. coli BL21-derived host (T7 phage display) for most kinases; HEK-293 for the rest
# Experimental: as §1, §2
# kinases [8] = molecular target: T8, kinases (Homo sapiens, UniProt P07949, V804L)
# T8 construct: purchased Eurofins/DiscoveRx; host or cells: E. coli BL21-derived host (T7 phage display) for most kinases; HEK-293 for the rest
# Experimental: as §1, §2
# kinases [9] = molecular target: T9, kinases (Homo sapiens, UniProt P00519, Y253F)
# T9 construct: purchased Eurofins/DiscoveRx; host or cells: E. coli BL21-derived host (T7 phage display) for most kinases; HEK-293 for the rest
# Experimental: as §1, §2
# kinases [10] = molecular target: T10, kinases (Homo sapiens, UniProt P07949)
# T10 construct: purchased Eurofins/DiscoveRx; host or cells: E. coli BL21-derived host (T7 phage display) for most kinases; HEK-293 for the rest
# Experimental: as §1, §2
# kinases [11] = molecular target: T11, kinases (Homo sapiens, UniProt P00519)
# T11 construct: purchased Eurofins/DiscoveRx; host or cells: E. coli BL21-derived host (T7 phage display) for most kinases; HEK-293 for the rest
# Experimental: as §1, §2
# kinases [12] = molecular target: T12, kinases (Homo sapiens, UniProt P07949, M918T)
# T12 construct: purchased Eurofins/DiscoveRx; host or cells: E. coli BL21-derived host (T7 phage display) for most kinases; HEK-293 for the rest
# Experimental: as §1, §2
# kinases [13] = molecular target: T13, kinases (Homo sapiens, UniProt P00533, G719C)
# T13 construct: purchased Eurofins/DiscoveRx; host or cells: E. coli BL21-derived host (T7 phage display) for most kinases; HEK-293 for the rest
# Experimental: as §1, §2
# kinases [14] = molecular target: T14, kinases (Homo sapiens, UniProt P00533, T790M)
# T14 construct: purchased Eurofins/DiscoveRx; host or cells: E. coli BL21-derived host (T7 phage display) for most kinases; HEK-293 for the rest
# Experimental: as §1, §2
# [15] = target ABL1(H396P)-nonphosphorylated
# [16] = target ABL1(H396P)-phosphorylated
# [17] = target ABL1(M351T)-phosphorylated
# [18] = target ABL1(Y253F)-phosphorylated
# T8 sequence (P07949 29-1114 V804L): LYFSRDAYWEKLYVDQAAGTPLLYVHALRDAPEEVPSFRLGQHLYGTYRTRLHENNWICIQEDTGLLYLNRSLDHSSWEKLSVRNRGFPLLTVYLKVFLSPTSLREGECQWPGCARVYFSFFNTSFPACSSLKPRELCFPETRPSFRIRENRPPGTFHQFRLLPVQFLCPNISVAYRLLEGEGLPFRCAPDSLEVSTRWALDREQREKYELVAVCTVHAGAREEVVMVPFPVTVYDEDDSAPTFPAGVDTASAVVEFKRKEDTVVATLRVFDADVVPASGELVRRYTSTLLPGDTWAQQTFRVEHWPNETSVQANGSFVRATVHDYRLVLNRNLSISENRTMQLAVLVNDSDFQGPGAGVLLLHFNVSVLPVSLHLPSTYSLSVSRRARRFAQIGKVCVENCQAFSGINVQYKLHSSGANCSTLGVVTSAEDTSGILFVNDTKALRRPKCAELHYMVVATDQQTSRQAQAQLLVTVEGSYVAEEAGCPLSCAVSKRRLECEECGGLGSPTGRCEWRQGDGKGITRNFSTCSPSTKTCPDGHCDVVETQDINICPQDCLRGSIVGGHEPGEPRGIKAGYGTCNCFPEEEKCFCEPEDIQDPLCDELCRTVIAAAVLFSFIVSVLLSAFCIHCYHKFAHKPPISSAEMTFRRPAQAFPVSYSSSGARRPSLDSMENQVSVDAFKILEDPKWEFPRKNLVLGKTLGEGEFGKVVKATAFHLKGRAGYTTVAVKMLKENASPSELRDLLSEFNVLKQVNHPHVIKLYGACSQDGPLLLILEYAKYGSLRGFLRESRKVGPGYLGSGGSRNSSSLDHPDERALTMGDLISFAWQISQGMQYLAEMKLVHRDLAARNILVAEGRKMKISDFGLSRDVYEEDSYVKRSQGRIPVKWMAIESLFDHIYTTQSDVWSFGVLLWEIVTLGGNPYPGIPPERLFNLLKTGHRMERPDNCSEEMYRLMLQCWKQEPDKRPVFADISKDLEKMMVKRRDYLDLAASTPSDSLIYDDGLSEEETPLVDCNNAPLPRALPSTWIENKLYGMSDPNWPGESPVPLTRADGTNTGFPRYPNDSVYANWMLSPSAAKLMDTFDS
# T4 sequence (P10721 26-976 L576P): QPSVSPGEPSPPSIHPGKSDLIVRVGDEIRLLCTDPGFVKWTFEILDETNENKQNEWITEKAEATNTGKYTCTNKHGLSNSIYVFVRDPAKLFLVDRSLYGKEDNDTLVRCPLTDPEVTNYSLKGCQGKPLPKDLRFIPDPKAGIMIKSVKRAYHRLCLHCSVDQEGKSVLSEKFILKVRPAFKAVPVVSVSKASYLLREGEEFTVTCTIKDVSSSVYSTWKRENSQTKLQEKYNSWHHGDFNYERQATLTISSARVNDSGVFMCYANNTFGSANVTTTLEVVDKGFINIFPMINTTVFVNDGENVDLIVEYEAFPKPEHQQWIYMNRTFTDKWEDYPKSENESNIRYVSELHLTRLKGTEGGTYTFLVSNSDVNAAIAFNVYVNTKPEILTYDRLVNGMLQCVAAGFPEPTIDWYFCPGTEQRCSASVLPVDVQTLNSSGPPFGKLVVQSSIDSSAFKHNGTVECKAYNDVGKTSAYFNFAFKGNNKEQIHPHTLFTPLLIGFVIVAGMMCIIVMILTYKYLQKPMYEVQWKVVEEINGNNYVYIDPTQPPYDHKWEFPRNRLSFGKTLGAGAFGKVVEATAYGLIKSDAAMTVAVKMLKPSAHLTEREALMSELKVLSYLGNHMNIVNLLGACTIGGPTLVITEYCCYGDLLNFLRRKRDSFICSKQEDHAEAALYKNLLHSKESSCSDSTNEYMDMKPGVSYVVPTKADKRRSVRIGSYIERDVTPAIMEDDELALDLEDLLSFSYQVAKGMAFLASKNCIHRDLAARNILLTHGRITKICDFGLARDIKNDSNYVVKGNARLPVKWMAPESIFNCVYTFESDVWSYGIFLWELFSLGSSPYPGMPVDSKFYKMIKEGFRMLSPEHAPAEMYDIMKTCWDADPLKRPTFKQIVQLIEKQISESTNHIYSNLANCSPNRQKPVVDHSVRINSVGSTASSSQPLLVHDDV
# T3 sequence (P09619 33-1106): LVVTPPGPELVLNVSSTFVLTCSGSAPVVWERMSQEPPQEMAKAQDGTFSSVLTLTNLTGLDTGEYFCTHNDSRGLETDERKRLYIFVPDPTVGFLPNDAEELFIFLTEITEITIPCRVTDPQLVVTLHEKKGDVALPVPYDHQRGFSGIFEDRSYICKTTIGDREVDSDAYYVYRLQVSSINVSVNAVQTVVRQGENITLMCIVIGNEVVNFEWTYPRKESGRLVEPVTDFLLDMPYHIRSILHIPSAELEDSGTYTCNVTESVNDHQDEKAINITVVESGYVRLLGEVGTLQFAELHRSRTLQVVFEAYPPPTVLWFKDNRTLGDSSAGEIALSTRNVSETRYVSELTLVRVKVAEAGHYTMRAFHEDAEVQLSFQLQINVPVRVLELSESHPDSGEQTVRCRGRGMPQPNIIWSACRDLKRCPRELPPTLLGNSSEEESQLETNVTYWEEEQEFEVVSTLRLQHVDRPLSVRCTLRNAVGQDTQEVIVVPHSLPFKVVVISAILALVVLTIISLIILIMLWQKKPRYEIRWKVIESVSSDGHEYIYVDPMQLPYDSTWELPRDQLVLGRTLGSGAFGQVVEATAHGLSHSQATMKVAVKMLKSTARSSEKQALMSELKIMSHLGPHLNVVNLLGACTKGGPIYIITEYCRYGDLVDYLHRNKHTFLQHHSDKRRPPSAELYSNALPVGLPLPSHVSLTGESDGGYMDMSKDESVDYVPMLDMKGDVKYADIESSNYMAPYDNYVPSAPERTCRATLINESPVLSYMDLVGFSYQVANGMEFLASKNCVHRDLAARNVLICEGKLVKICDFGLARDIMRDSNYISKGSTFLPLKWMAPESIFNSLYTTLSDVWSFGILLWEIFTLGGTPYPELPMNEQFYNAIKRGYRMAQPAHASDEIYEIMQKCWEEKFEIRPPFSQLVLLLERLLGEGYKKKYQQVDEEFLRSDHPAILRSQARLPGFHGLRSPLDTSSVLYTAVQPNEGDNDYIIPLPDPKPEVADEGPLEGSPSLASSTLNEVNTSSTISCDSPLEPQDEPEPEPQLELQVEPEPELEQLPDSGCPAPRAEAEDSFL
# T12 sequence (P07949 29-1114 M918T): as the sequence (P07949 29-1114 V804L) above, with L776V, M890T counted along it
# T10 sequence (P07949 29-1114): as the sequence (P07949 29-1114 V804L) above, with L776V counted along it
# T5 sequence (P10721 26-976 V559D/V654A): as the sequence (P10721 26-976 L576P) above, with V534D, P551L, V629A counted along it
Compound,"% Ctrl, FLT3-autoinhibited (kinases [1]; target FLT3-autoinhibited) [% Ctrl]","% Ctrl, FLT3 (kinases [1]; target FLT3) [% Ctrl]","% Ctrl, EGFR(S752-I759del) (kinases [2]; target EGFR(S752-I759del)) [% Ctrl]","% Ctrl, PDGFRB (kinases [3]; target PDGFRB) [% Ctrl]","% Ctrl, KIT(L576P) (kinases [4]; target KIT(L576P)) [% Ctrl]","% Ctrl, KIT(V559D, V654A) (kinases [5]; target KIT(V559D, V654A)) [% Ctrl]","% Ctrl, ABL1(H396P)-nonphosphorylated (kinases [6]; [15]) [% Ctrl]","% Ctrl, ABL1(H396P)-phosphorylated (kinases [6]; [16]) [% Ctrl]","% Ctrl, ABL1(M351T)-phosphorylated (kinases [7]; [17]) [% Ctrl]","% Ctrl, RET(V804L) (kinases [8]; target RET(V804L)) [% Ctrl]","% Ctrl, ABL1(Y253F)-phosphorylated (kinases [9]; [18]) [% Ctrl]","% Ctrl, RET (kinases [10]; target RET) [% Ctrl]","% Ctrl, ABL1-nonphosphorylated (kinases [11]; target ABL1-nonphosphorylated) [% Ctrl]","% Ctrl, ABL1-phosphorylated (kinases [11]; target ABL1-phosphorylated) [% Ctrl]","% Ctrl, RET(M918T) (kinases [12]; target RET(M918T)) [% Ctrl]","% Ctrl, EGFR(G719C) (kinases [13]; target EGFR(G719C)) [% Ctrl]","% Ctrl, EGFR(T790M) (kinases [14]; target EGFR(T790M)) [% Ctrl]","% Ctrl, FLT3 (kinases [1]; FLT3) [% Ctrl]","% Ctrl, FLT3-autoinhibited (kinases [1]; FLT3-autoinhibited) [% Ctrl]","% Ctrl, EGFR(S752-I759del) (kinases [2]; EGFR(S752-I759del)) [% Ctrl]",also measured
"Cc1cc2c([nH]1)/C=C1\C(=O)Nc3ccc(cc31)-c1c(noc1C)CNCCN(C)C2=O [Ex. 139, [3a(4)Z]-6,9,16-trimethyl-10,11,12,13-tetrahydro-2H-1,17-(ethanediylidene)[1,2]oxazolo[4,3-m]dipyrrolo[3,2-f:3′,4′-i][1,4]diazacyclopentadecine-3,8(5H,9H)-dione]",67,33,74,73,84,75,2,9.5,7.3,15,11,42,17,9.8,41,82,36,–,–,–,–
"Cc1cc2c([nH]1)/C=C1\C(=O)Nc3ccc(cc31)CN(C)C(=O)COCCNC2=O [Ex.111, [17a(18)Z]-2,11-dimethyl-6,7,11,12-tetrahydro-1H-13,15-(ethanediylidene)dipyrrolo[3,2-f:3′,4′-i][1,4,14]oxadiazacyclohexadecine-4,10,17(5H,9H,16H)-trione]",–,–,–,–,–,–,–,–,–,–,–,–,–,–,–,–,–,45,95,54,"% Ctrl, PDGFRB (kinases [3]; PDGFRB): 88 % Ctrl; % Ctrl, KIT(L576P) (kinases [4]; KIT(L576P)): 98 % Ctrl; % Ctrl, KIT(V559D, V654A) (kinases [5]; KIT(V559D, V654A)): 62 % Ctrl; % Ctrl, ABL1(H396P)-nonphosphorylated (kinases [6]; ABL1(H396P)-nonphosphorylated): 62 % Ctrl; % Ctrl, ABL1(H396P)-phosphorylated (kinases [6]; ABL1(H396P)-phosphorylated): 61 % Ctrl; % Ctrl, ABL1(M351T)-phosphorylated (kinases [7]; ABL1(M351T)-phosphorylated): 98 % Ctrl; % Ctrl, RET(V804L) (kinases [8]; RET(V804L)): 71 % Ctrl; % Ctrl, ABL1(Y253F)-phosphorylated (kinases [9]; ABL1(Y253F)-phosphorylated): 58 % Ctrl; % Ctrl, RET (kinases [10]; RET): 94 % Ctrl; % Ctrl, ABL1-nonphosphorylated (kinases [11]; ABL1-nonphosphorylated): 71 % Ctrl; % Ctrl, ABL1-phosphorylated (kinases [11]; ABL1-phosphorylated): 59 % Ctrl; % Ctrl, RET(M918T) (kinases [12]; RET(M918T)): 76 % Ctrl; % Ctrl, EGFR(G719C) (kinases [13]; EGFR(G719C)): 73 % Ctrl; % Ctrl, EGFR(T790M) (kinases [14]; EGFR(T790M)): 68 % Ctrl"
"Cc1cc2c([nH]1)/C=C1\C(=O)Nc3cc(Cl)c(cc31)OCCOCCN(C)C2=O [Ex. 131, [16a(17)Z]-19-chloro-2,5-dimethyl-6,7,9,10-tetrahydro-1H-12,14-(ethanediylidene)dipyrrolo[3,2-i:3′,4′-l][1,4,7]dioxazacyclopentadecine-4,16(5H,15H)-dione]",–,–,–,–,–,–,–,–,–,–,–,–,–,–,–,–,–,0.6,5.1,70,"% Ctrl, PDGFRB (kinases [3]; PDGFRB): 1.4 % Ctrl; % Ctrl, KIT(L576P) (kinases [4]; KIT(L576P)): 0 % Ctrl; % Ctrl, KIT(V559D, V654A) (kinases [5]; KIT(V559D, V654A)): 12 % Ctrl; % Ctrl, ABL1(H396P)-nonphosphorylated (kinases [6]; ABL1(H396P)-nonphosphorylated): 0 % Ctrl; % Ctrl, ABL1(H396P)-phosphorylated (kinases [6]; ABL1(H396P)-phosphorylated): 0 % Ctrl; % Ctrl, ABL1(M351T)-phosphorylated (kinases [7]; ABL1(M351T)-phosphorylated): 0.2 % Ctrl; % Ctrl, RET(V804L) (kinases [8]; RET(V804L)): 0 % Ctrl; % Ctrl, ABL1(Y253F)-phosphorylated (kinases [9]; ABL1(Y253F)-phosphorylated): 0 % Ctrl; % Ctrl, RET (kinases [10]; RET): 0 % Ctrl; % Ctrl, ABL1-nonphosphorylated (kinases [11]; ABL1-nonphosphorylated): 0 % Ctrl; % Ctrl, ABL1-phosphorylated (kinases [11]; ABL1-phosphorylated): 0 % Ctrl; % Ctrl, RET(M918T) (kinases [12]; RET(M918T)): 0 % Ctrl; % Ctrl, EGFR(G719C) (kinases [13]; EGFR(G719C)): 93 % Ctrl; % Ctrl, EGFR(T790M) (kinases [14]; EGFR(T790M)): 61 % Ctrl"
CN1CCSCCOc2cc3c(cc2Cl)NC(=O)/C3=C\c2[nH]ccc2C1=O [Ex. 153],26,1.6,100,0.5,0.1,13,0.8,16,9.5,6.1,13,2.4,1.3,18,1,49,83,–,–,–,–
